Laboratory results taken from patent US20250041302A1, “PROLYL HYDROXYLASE DOMAIN INHIBITOR FOR TREATING HEMORRHAGIC OR BURN SHOCK” (THE GOVERNMENT OF THE UNITED STATES, AS REPRESENTED BY THE …, priority 2022, published 2025).
“Also recorded” adds a separate entry of the source.

Test system: swine model of 40% total burned surface area burn
Assay: Porcine burn shock pilot study, 40% total burned surface area contact burn
Format: in vivo, Juvenile female Yorkshire swine
Conditions: for BE / HCO3 / Lactate / TCO2 / arterial blood gas pH / pCO2 / pO2 / sO2: 4 Hours after Burn; for Alanine Aminotransferase / Albumin / Alkaline Phosphatase / Amylase / Aspartate Aminotransferase / BUN / Basophils / Bicarbonate / Calculated Osmolality / Cellular Hemoglobin (Optical) / Cellular Hemoglobin Concentration Mean (Optical) / Chloride / Eosinophils / Glucose / Hematocrit / Hemoglobin / Hemoglobin Distribution Width / Large Unstained Cells / Lipase / Lymphocytes / Mean Corpuscular Hemoglobin / Mean Corpuscular Hemoglobin Concentration / Mean Corpuscular Volume / Mean Platelet Volume / Monocytes / Myoglobin / Neutrophils / Platelets / Potassium / Red Blood Cells / Red Cell Distribution Width / Sodium / Total Protein / White Blood Cells / Creatinine: 24 Hours after Burn; for mortalities: n=4, over 48 hours
Method: Using n=12 animals, we performed a pilot study of the effects of HIF-1α pathway activation with MK-8617 on survival time and volume of resuscitation fluid required to maintain urine output over 48 hours in a swine model of 40% total burned surface area mixed deep and partial thickness contact burn. Animals were block randomized into three groups, including control (vehicle only; n=4), low-dose (15 mg; n=4) and high-dose (50 mg; n=4). MK-8617 for injection was dissolved in a 45:5:50 mixture of polyethylene glycol (molecular weight: 400 daltons): dimethylsulfoxide: saline with pH adjusted to 8.4. Juvenile female Yorkshire swine weighing between 35-50 kg underwent open surgical splenectomy, then were allowed to recover for a minimum of two weeks before instrumentation with central venous and arterial lines and experimental burn. Animals received an injection of MK-8617 or vehicle at 30 minutes after burn followed by a standard-of-care crystalloid resuscitation with lactated Ringer's solution starting at 60 minutes after burn-we used a custom-built, fully closed-loop, automated resuscitation system based on the Burn Navigator to deliver goal-directed resuscitation with a target urine output of 30-50 ml/hr. Time to mortality, total fluid volumes infused, urine output generated, and serological measures of organ function were measured. Investigators remained blinded to treatment allocations until after data analysis was complete. Survival was analyzed using a log-rank test followed by a Tukey's studentized range multiple comparisons adjustment. Serological measures were analyzed using a linear model with baseline correction followed by a Tukey-Kramer multiple comparisons adjustment.

[1] = low and high dose versus control

COc1ccc(C(NC(=O)c2cnc(-c3cccnn3)nc2O)c2ccc(OC)cc2)cc1 [MK-8617, N-[Bis(4-methoxyphenyl)methyl]-4-hydroxy-2-(pyridazin-3-yl)pyrimidine-5-carboxamide]
BE (High Dose (50 mg)): 3.75 ± 2.99 mmol/L | HCO3 (High Dose (50 mg)): 28.18 ± 2.44 mmol/L | Lactate (High Dose (50 mg)): 6.98 ± 3.09 mmol/L | TCO2 (High Dose (50 mg)): 29.50 ± 2.52 mmol/L | arterial blood gas pH (High Dose (50 mg)): 7.43±0.05 | pCO2 (High Dose (50 mg)): 42.25 ± 4.07 mmHg | pO2 (High Dose (50 mg)): 209.00 ± 2.45 mmHg | sO2 (High Dose (50 mg)): 100 ± 0% | Alanine Aminotransferase (High Dose (50 mg)): 50.00 ± 10.23 U/L | Albumin (High Dose (50 mg)): 0.55 ± 0.19 g/dL | Alkaline Phosphatase (High Dose (50 mg)): 159.75 ± 39.11 U/L | Amylase (High Dose (50 mg)): 58577 ± 41616 U/L | Aspartate Aminotransferase (High Dose (50 mg)): 98.75 ± 37.56 U/L | BUN (High Dose (50 mg)): 18.75 ± 1.65 mg/dL | Basophils (High Dose (50 mg)): 0.13 ± 0.05% | Bicarbonate (High Dose (50 mg)): 26.90 ± 1.65 mmol/L | Calculated Osmolality (High Dose (50 mg)): 290.00 ± 9.49 | Cellular Hemoglobin (Optical) (High Dose (50 mg)): 16.3 ± 0.66 pg | Cellular Hemoglobin Concentration Mean (Optical) (High Dose (50 mg)): 31.30 ± 0.86 g/dL | Chloride (High Dose (50 mg)): 108.25 ± 4.99 mmol/L | Eosinophils (High Dose (50 mg)): 0.18 ± 0.05% | Glucose (High Dose (50 mg)): 69.50 ± 3.70 mg/dL | Hematocrit (High Dose (50 mg)): 29.93 ± 2.01% | Hemoglobin (High Dose (50 mg)): 9.60 ± 0.51 g/dL | Hemoglobin Distribution Width (High Dose (50 mg)): 1.78 ± 0.15 g/dL | Large Unstained Cells (High Dose (50 mg)): 0.88 ± 0.17% | Lipase (High Dose (50 mg)): 155.67 ± 71.84 U/L | Lymphocytes (High Dose (50 mg)): 38.78 ± 9.52% | Mean Corpuscular Hemoglobin (High Dose (50 mg)): 16.75 ± 0.60 pg | Mean Corpuscular Hemoglobin Concentration (High Dose (50 mg)): 32.18 ± 0.59 g/dL | Mean Corpuscular Volume (High Dose (50 mg)): 52.05 ± 0.97 fL | Mean Platelet Volume (High Dose (50 mg)): 11.53 ± 1.06 fL | Monocytes (High Dose (50 mg)): 1.98 ± 0.71% | Myoglobin (High Dose (50 mg)): 502.50 ± 148.23 ng/mL | Neutrophils (High Dose (50 mg)): 58.05 ± 9.81% | Platelets (High Dose (50 mg)): 363 ± 32 10³ cells/µL | Potassium (High Dose (50 mg)): 4.58 ± 0.85 mmol/L | Red Blood Cells (High Dose (50 mg)): 5.75 ± 0.47 10^6 cells/μL | Red Cell Distribution Width (High Dose (50 mg)): 15.55 ± 0.61% | Sodium (High Dose (50 mg)): 145.50 ± 4.51 mmol/L | Total Protein (High Dose (50 mg)): 4.38 ± 0.78 g/dL | White Blood Cells (High Dose (50 mg)): 17.5 ± 4.92 10³ cells/µL | Creatinine (High Dose (50 mg), adjusted p=0.04 versus low dose): 1.53 ± 0.28 mg/dL | BE (Low Dose (15 mg)): -3.00 ± 5.48 mmol/L | HCO3 (Low Dose (15 mg)): 22.30 ± 4.08 mmol/L | Lactate (Low Dose (15 mg)): 11.84 ± 4.55 mmol/L | TCO2 (Low Dose (15 mg)): 23.75 ± 4.11 mmol/L | arterial blood gas pH (Low Dose (15 mg)): 7.35 ± 0.10 | pCO2 (Low Dose (15 mg)): 38.40 ± 5.69 mmHg | sO2 (Low Dose (15 mg)): 100 ± 0% | pO2 (Low Dose (15 mg), adjusted p=0.007 versus control): 191.75 ± 14.73 mmHg | Alanine Aminotransferase (Low Dose (15 mg)): 31.00 ± 36.77 U/L | Albumin (Low Dose (15 mg)): 0.50 ± 0.00 g/dL | Alkaline Phosphatase (Low Dose (15 mg)): 201.50 ± 10.61 U/L | Amylase (Low Dose (15 mg)): 234170 ± 286731 U/L | Aspartate Aminotransferase (Low Dose (15 mg)): 119.00 ± 80.61 U/L | Basophils (Low Dose (15 mg)): 0.20 ± 0.00% | Bicarbonate (Low Dose (15 mg)): 24.95 ± 2.62 mmol/L | Calculated Osmolality (Low Dose (15 mg)): 291.50 ± 10.61 | Cellular Hemoglobin (Optical) (Low Dose (15 mg)): 15.8 ± 0.42 pg | Cellular Hemoglobin Concentration Mean (Optical) (Low Dose (15 mg)): 30.45 ± 0.49 g/dL | Chloride (Low Dose (15 mg)): 108.50 ± 3.54 mmol/L | Creatinine (Low Dose (15 mg)): 2.01 ± 0.16 mg/dL | Eosinophils (Low Dose (15 mg)): 0.40 ± 0.00% | Glucose (Low Dose (15 mg)): 46.00 ± 26.87 mg/dL | Hematocrit (Low Dose (15 mg)): 29.35 ± 0.64% | Hemoglobin (Low Dose (15 mg)): 9.55 ± 0.35 g/dL | Hemoglobin Distribution Width (Low Dose (15 mg)): 1.74 ± 0.17 g/dL | Large Unstained Cells (Low Dose (15 mg)): 0.80 ± 0.00% | Lipase (Low Dose (15 mg)): 19059.00 ± 26899.76 U/L | Lymphocytes (Low Dose (15 mg)): 37.55 ± 18.46% | Mean Corpuscular Hemoglobin (Low Dose (15 mg)): 16.85 ± 0.49 pg | Mean Corpuscular Hemoglobin Concentration (Low Dose (15 mg)): 32.45 ± 0.49 g/dL | Mean Corpuscular Volume (Low Dose (15 mg)): 52.05 ± 0.78 fL | Mean Platelet Volume (Low Dose (15 mg)): 14.90 ± 2.69 fL | Monocytes (Low Dose (15 mg)): 1.05 ± 0.78% | Myoglobin (Low Dose (15 mg)): 425.50 ± 318.91 ng/mL | Neutrophils (Low Dose (15 mg)): 60.05 ± 17.61% | Platelets (Low Dose (15 mg)): 329 ± 228 10³ cells/µL | Potassium (Low Dose (15 mg)): 4.75 ± 0.78 mmol/L | Red Blood Cells (Low Dose (15 mg)): 5.64 ± 0.05 10^6 cells/μL | Red Cell Distribution Width (Low Dose (15 mg)): 15.25 ± 0.78% | Sodium (Low Dose (15 mg)): 145.00 ± 5.66 mmol/L | Total Protein (Low Dose (15 mg)): 4.05 ± 0.07 g/dL | White Blood Cells (Low Dose (15 mg)): 24 ± 18.9 10³ cells/µL | BUN (Low Dose (15 mg), adjusted p=0.03 versus control): 29.00 ± 2.83 mg/dL | mortalities (high dose 50 mg): no mortalities | metabolic / lactic acidosis after burn (high dose 50 mg, not statistically significant): may ameliorate metabolic acidosis; also recorded: may improve lactic acidosis | effect on mortality, high dose versus low dose (high dose 50 mg, not versus control): significantly out-performing the low dose group | resuscitation fluid required [1]: no statistically significant differences; also recorded: did not appear to reduce resuscitation volumes | urine output generated [1]: no statistically significant differences; also recorded: did not appear to reduce resuscitation volumes or improve urine output | mortalities (low dose 15 mg): three | time to mortality, low dose versus high dose (low dose 15 mg, p=0.044): significantly worse time to mortality
